Results reported in ChEMBL document CHEMBL5104113, “Biophysical Survey of Small-Molecule β-Catenin Inhibitors: A Cautionary Tale” (J Med Chem, 2022).

How the values were obtained:
[1] = biological target: T1, Catenin beta-1 (Homo sapiens) (UniProt P35222); conditions: dose 125.0 µM
T1 sequence (whole entry): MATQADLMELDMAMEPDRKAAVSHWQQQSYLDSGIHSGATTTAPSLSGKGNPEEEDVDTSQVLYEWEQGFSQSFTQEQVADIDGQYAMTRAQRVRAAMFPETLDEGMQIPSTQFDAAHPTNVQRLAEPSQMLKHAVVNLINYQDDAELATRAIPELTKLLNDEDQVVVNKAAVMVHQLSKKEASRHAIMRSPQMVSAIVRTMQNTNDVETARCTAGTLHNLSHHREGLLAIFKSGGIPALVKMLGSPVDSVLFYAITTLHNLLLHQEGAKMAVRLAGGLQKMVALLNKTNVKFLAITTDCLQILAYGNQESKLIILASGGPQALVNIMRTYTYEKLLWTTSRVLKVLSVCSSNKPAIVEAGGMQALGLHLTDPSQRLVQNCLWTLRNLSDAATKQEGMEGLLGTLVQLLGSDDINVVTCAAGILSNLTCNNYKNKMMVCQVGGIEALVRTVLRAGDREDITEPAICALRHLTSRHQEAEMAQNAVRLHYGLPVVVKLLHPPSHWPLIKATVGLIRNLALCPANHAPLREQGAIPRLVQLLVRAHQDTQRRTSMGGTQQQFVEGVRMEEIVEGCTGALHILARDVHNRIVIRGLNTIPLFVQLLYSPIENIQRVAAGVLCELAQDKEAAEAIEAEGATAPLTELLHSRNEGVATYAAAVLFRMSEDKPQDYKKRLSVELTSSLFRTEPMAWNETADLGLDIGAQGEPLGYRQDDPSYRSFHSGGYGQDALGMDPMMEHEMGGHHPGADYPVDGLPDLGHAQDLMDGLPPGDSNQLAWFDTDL
Description: Thermal stabilization of wildtype beta catenin ARD (148 to 662 residues) (unknown origin) assessed as change in melting temperature at 125 uM by DSF method

TCF4-CTNNB1 complex = biological target: T2, TCF4-CTNNB1 complex (Homo sapiens, UniProt P35222+Q9NQB0); test: Inhibition of beta catenin/recombinant GST tagged Tcf4 protein protein interaction in human HCT-116 cells; format: cell-based
T2 sequence (P35222 whole entry): T1 sequence (whole entry)
T2 sequence (P15884 whole entry): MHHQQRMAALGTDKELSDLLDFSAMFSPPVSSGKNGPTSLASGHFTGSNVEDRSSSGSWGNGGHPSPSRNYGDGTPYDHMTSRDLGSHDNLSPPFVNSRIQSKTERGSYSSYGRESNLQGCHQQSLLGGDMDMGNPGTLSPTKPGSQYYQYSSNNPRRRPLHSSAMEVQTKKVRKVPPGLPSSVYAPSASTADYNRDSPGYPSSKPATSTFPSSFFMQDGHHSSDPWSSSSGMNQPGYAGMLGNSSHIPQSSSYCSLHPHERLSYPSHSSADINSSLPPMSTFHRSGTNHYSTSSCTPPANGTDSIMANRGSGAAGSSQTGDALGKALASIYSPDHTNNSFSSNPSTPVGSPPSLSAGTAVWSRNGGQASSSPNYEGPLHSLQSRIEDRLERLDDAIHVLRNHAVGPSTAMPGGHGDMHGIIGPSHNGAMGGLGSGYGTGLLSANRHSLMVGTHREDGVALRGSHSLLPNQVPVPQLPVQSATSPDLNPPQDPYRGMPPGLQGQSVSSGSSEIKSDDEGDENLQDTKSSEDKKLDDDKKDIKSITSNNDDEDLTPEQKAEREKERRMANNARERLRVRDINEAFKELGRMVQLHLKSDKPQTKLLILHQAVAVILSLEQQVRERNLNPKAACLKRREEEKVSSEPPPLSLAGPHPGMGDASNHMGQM

[2] = biological target: T1, Catenin beta-1 (Homo sapiens)
Description: Binding affinity to beta catenin ARD (142 to 686 residues) (unknown origin) assessed as change in entropy by VP-ITC method

Catenin beta-1 [3] = biological target: T3, Catenin beta-1 (Homo sapiens, UniProt P35222)
T3 sequence (P35222 whole entry): T1 sequence (whole entry)
Description: Binding affinity to beta catenin ARD (142 to 686 residues) (unknown origin) assessed as inhibition constant by fluorescence polarisation assay

[4] = Inhibition of Wnt/beta-catenin (unknown origin) transcriptional activity pathway transfected human H1299 cells by measuring luciferase activity after 24 hrs by TOP-flash luciferase reporter gene assay; format: cell-based; conditions: nci-h1299
Catenin beta-1 [5] = biological target: T3, Catenin beta-1; test: Binding affinity to N-terminal FLAG tagged beta catenin alpha helix (H1 - 141 to 149 aa) of armadillo repeat domain (unknown origin) by STD/HSQC based NMR analysis
[6] = biological target: T4, beta-catenin-B-cell lymphoma 9 protein complex (Homo sapiens, UniProt P35222); test: Binding affinity to N-terminal FLAG tagged beta catenin (134 to 671 residues)/FLAG tagged BCL9 domain 2 (343 to 396 residues) (unknown origin) protein protein interaction assessed as inhibition constant; format: protein-complex assay
T4 sequence (P35222 whole entry): T1 sequence (whole entry)
T4 sequence (O00512 whole entry): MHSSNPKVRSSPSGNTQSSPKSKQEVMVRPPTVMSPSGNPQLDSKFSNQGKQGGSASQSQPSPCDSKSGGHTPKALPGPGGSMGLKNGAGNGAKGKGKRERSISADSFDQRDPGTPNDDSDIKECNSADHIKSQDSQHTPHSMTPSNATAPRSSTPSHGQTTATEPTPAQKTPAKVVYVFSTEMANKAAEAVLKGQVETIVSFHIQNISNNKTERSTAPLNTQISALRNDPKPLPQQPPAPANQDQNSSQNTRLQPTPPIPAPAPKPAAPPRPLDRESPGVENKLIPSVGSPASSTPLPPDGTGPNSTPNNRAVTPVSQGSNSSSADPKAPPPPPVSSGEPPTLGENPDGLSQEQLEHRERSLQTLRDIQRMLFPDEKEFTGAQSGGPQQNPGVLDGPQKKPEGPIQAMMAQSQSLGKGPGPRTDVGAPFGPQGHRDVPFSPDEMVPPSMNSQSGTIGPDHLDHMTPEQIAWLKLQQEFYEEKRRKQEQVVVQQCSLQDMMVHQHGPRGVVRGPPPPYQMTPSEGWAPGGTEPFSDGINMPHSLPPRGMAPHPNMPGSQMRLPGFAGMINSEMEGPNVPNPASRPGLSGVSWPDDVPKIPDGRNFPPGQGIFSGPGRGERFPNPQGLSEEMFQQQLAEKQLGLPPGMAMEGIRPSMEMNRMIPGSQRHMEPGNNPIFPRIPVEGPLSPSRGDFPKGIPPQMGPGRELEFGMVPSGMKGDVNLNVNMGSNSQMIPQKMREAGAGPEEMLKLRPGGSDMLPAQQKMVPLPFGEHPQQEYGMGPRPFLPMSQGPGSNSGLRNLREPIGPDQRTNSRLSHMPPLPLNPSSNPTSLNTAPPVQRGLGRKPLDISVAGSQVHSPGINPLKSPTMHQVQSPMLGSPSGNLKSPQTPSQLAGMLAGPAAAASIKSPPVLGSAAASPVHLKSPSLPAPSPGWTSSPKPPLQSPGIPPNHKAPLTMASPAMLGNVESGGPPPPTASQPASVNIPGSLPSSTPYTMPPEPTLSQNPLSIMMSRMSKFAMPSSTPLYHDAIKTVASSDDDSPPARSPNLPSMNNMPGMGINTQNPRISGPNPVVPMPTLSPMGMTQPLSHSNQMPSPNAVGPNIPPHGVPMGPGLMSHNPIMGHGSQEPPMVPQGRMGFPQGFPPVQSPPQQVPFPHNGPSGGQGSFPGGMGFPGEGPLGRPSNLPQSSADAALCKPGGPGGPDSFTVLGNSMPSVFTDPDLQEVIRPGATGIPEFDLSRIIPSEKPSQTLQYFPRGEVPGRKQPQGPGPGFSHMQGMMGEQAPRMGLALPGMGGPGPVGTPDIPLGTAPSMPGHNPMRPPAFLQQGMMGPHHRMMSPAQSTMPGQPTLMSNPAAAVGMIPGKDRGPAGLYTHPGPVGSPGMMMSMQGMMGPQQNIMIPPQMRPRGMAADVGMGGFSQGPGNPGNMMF

[7] = biological target: Poly(ADP-ribose) glycohydrolase (Homo sapiens, UniProt Q86W56); test: Binding affinity to human PARG assessed as dissociation constant by SPR analysis
Poly(ADP-ribose) glycohydrolase, sequence (Q86W56 whole entry): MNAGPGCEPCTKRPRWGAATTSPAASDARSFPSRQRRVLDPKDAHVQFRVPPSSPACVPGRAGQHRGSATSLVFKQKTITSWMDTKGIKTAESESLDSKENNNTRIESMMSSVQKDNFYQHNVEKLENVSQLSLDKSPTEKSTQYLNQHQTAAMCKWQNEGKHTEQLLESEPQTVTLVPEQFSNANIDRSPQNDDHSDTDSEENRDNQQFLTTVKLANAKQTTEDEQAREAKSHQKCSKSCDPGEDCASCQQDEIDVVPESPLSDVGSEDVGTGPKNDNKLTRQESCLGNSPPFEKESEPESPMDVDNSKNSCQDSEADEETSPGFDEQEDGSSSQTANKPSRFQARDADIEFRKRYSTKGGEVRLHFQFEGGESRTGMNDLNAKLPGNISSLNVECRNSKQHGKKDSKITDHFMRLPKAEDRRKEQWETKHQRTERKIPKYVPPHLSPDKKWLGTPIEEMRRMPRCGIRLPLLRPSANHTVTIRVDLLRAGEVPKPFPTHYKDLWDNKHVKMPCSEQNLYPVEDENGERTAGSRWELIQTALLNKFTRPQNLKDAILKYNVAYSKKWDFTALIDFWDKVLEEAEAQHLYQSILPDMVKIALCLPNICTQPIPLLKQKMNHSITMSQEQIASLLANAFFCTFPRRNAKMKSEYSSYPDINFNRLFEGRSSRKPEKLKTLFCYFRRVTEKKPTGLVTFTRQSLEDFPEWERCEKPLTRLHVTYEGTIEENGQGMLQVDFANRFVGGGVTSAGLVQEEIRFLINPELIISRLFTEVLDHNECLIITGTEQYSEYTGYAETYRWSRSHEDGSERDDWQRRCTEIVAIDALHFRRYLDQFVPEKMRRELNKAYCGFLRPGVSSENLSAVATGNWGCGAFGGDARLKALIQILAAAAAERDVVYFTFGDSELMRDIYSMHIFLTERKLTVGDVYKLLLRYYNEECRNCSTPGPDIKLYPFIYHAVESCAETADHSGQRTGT

A549 = test: Antiproliferative activity against human A549 cells expressing wnt2 incubated for 72 hrs by celltitre 96 non-radioactive cell proliferation assay kit; format: functional, cell-based; conditions: A549, 72 h
HCT-116 [8] = test: Inhibition of cell growth in human HCT-116 cells incubated for 24 hrs by WST-1 assay; format: functional
SW480 [9] = test: Inhibition of cell growth in human SW480 cells incubated for 24 hrs by WST-1 assay; format: functional
[10] = Inhibition of Tcf in HEK293 cells by TOPflash luciferase reporter assay; format: cell-based; conditions: Homo sapiens
Catenin beta-1 [11] = biological target: T3, Catenin beta-1; test: Inhibition of beta catenin in HEK293 cells by TOPflash luciferase reporter assay; format: cell-based
[12] = Downregulation of c-Myc protein expression level in human ASPC1 cells; format: functional, cell-based
[13] = Downregulation of c-Myc protein expression level in human PANC-1 cells; format: functional, cell-based
HCT-116 [14] = test: Cytotoxicity against human HCT-116 cells assessed as cell viability incubated for 72 hrs by cell titre glo assay; format: functional, cell-based; conditions: HCT-116, 72 h
SW-620 = test: Cytotoxicity against human SW-620 cells assessed as cell viability incubated for 72 hrs by cell titre glo assay; format: functional, cell-based; conditions: SW-620, 72 h
SW480 [15] = test: Cytotoxicity against human SW480 cells assessed as cell viability incubated for 72 hrs by cell titre glo assay; format: functional, cell-based; conditions: SW480, 72 h

In the case of `COc1cccc(/C=C2/SC(=S)N(CCC(=O)O)C2=O)c1OC`, the ΔTm [1] is reported as -0.5 °C.

`COc1c(C[C@H](C)OC(=O)Oc2ccc(O)cc2)c2c3c(C[C@H](C)OC(=O)c4ccccc4)c(OC)c(=O)c4c(O)cc(OC)c(c5c(OC)cc(O)c(c1=O)c52)c43` showed an IC50 (TCF4-CTNNB1 complex) of 10 µM.

Compound `CN(C)CCOc1nc2ccccc2nc1C#Cc1ccccc1` has a ΔTm [1] of 0 °C.

With `Cc1cc(Cl)ccc1/N=C\c1ccc(F)c(Oc2ccccc2)c1` the ΔTm [1] was 0.1 °C.

Work on `Cc1ccc(S(=O)(=O)Nc2cccc(C(=O)O)c2)cc1` yielded a ΔTm [1] of -0.5 °C.

For `O=C(Nc1ccc(O[C@H]2CCNC2)c(-c2ccc(F)cc2)c1)c1ccc(O[C@@H]2CCNC2)c(-c2ccc(F)c(F)c2)c1`, the ΔTm [1] was -0.5 °C.

`COC(=O)c1cccc(NS(=O)(=O)c2ccc(C)cc2)c1` gave a ΔTm [1] of -0.5 °C.

Work on `On1ncc2cc(CCc3nn[nH]n3)ccc21` yielded a -TdeltaS [2] of -7.89 kcal/mol and a Ki (Catenin beta-1 [3]) of 3 µM.

With `O=C(O)c1ccccc1-c1c2ccc(=O)cc-2oc2cc(O)ccc12` the ΔTm [1] was 0.1 °C.

Work on `O=C1C(Cl)=C(Nc2ccc(S(=O)(=O)Nc3ccccn3)cc2)C(=O)c2ccccc21` yielded an IC50 [4] of 2.3 µM.

For `CC(C)c1cc2c(c(O)c1O)[C@@]1(C(=O)O)CCCC(C)(C)[C@@H]1CC2` [CARNOSIC ACID], the Kd (Catenin beta-1 [5]) was 20 µM, the ΔTm [1] was -2.7 °C and the Ki [6] was 3 µM.

Work on `Cn1ncnc2c(=O)n(C)c(=O)nc1-2` yielded a ΔTm [1] of -0.5 °C.

`Cc1ccc2nc(N(C)C)nc(NCc3ccc(C(=O)NCc4ccc(F)cc4)cc3)c2c1` showed a ΔTm [1] of -0.7 °C.

`CC(C)(C)NS(=O)(=O)c1ccc2c(c1)C(=O)c1ccccc1C2=O` gave a Kd [7] of 0.00145 µM.

Work on `Cc1ccc(/C=N/NC(=O)c2ccccc2Oc2ccccc2)o1` yielded a ΔTm [1] of -0.5 °C.

With `Fc1ccc2nc(OCCN3CCCC3)c(C#Cc3ccccc3)nc2c1` the IC50 (A549) was 10 µM and the ΔTm [1] was 0.1 °C.

`O=C(CN1C2=NCCN2c2ccccc21)c1ccc(-c2ccccc2)cc1` showed a GI50 (HCT-116 [8]) of 13.9 µM, a ΔTm [1] of -0.1 °C and a GI50 (SW480 [9]) of 13.2 µM.

Compound `CN(C)c1ccc(-c2nc3cc(F)ccc3[nH]2)cc1` has a ΔTm [1] of -0.1 °C.

Compound `O=C(O)c1ccccc1Oc1ccccc1` has a ΔTm [1] of -0.1 °C.

`COc1c(C[C@H](C)OC(=O)c2c(C)cc(O)cc2O)c2c3c(C[C@H](C)OC(=O)c4c(C)cc(O)cc4O)c(OC)c(=O)c4c(O)cc(OC)c(c5c(OC)cc(O)c(c1=O)c52)c43` gave an IC50 (TCF4-CTNNB1 complex) of 10 µM.

Compound `CCc1cccc2c3c([nH]c12)[C@@](CC)(CC(=O)O)OCC3` [SDX-101] has an IC50 [10] of 46 µM, an IC50 (Catenin beta-1 [11]) of 683 µM and a ΔTm [1] of -0.5 °C.

For `COc1ccc2[nH]c3c(-c4cccc5ccccc45)nccc3c2c1`, the IC50 [12] was < 0.5 µM, the ΔTm [1] was -0.9 °C and the IC50 [13] was < 0.5 µM.

Work on `CCc1ccc(-c2nc(CSCC(=O)NCCc3ccccc3)c(C)o2)cc1` yielded a ΔTm [1] of -0.7 °C.

In the case of `c1ccc(CCNc2nc(N3CCCCC3)nc3ccccc23)cc1`, the IC50 (HCT-116 [14]) is reported as 6.2 µM, the IC50 (SW-620) is reported as 6.7 µM and the ΔTm [1] is reported as -0.6 °C. For the same compound, the IC50 (SW480 [15]) was 5.9 µM.
